Source: US20100291225A1, “Stabilized Sustained Release Composition of Bupropion Hydrochloride and Process For Preparing the Same” (priority 2008, published 2010)

Conditions: in vivo, po, 150 mg
Description: This example describes an in-vivo study, which measured plasma concentrations of bupropion achieved after oral administration of reference Wellbutrin® SR tablet and test bupropion hydrochloride sustained release tablets of example 1. The in-vivo study was carried out on 12+2 standby healthy adult subjects under fasting conditions. Plasma bupropion was determined over a 120 hour period, after single oral administration of the respective formulations. Each subject was administered each of the two formulations in cross over design separated by a washout period of 14 days between administrations of the two formulations. Plasma levels were measured at predetermined times utilizing a validated assay method employing LC-MS/MS instrumentation. Plasma pharmacokinetic parameters were evaluated using commercially available software WinNonlin version 5.0.1 or higher. The statistical analysis was performed using SAS® package (SAS® Institute Inc., USA version 9.1 or higher). Values derived at each time point and to determine the area under the curve (AUC) and maximum concentration (Cmax) afforded by Wellbutrin®SR and the test formulation.

- AUC0-t: 894.88 ngh/ml
- AUC0-α: 951.251 ngh/ml
- Cmax: 111.178 ng/mL
Structure (SMILES): CC(NC(C)(C)C)C(=O)c1cccc(Cl)c1 (stereo not drawn) [Wellbutrin ®SR]
